Test results taken from patent publication US12077503B2, “Substituted cyclic amides and their use as herbicides” (FMC CORPORATION, priority 2015, dated 2024).

Tests used:
Assay type in all cases: in vivo
[1] = tested on: rice (Oryra sativa); assay: Test B flooded paddy test; settings: Oryza sativa, 250 g ai/ha, Flood; 0 to 100 scale where 0 is no effect and 100 is complete control; read-out: Rice plant response rating
In short: (§1)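 2-leaf plants; pots flooded 3 cm over soil; cpd added to paddy water; depth held; greenhouse 13–15 d; visual rating vs controls, 0 = no effect, 100 = complete control.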

[2] = tested on: ducksalad (Heteranthera limosa); assay: Test B flooded paddy test; settings: Heteranthera limosa, 250 g ai/ha, Flood; 0 to 100 scale where 0 is no effect and 100 is complete control; read-out: Ducksalad plant response rating
In short: as §1

[3] = tested on: sedge, umbrella (small-flower umbrella sedge, Cyperus difformis); assay: Test B flooded paddy test; settings: Cyperus difformis, 250 g ai/ha, Flood; 0 to 100 scale where 0 is no effect and 100 is complete control; read-out: Sedge, Umbrella plant response rating
In short: as §1

[4] = tested on: barnyardgrass (Echinochloa crus-galli); assay: Test B flooded paddy test; settings: Echinochloa crus-galli, 250 g ai/ha, Flood; 0 to 100 scale where 0 is no effect and 100 is complete control; read-out: Barnyardgrass plant response rating
In short: as §1

[5] = tested on: ragweed (common ragweed, Ambrosia elatior); assay: Test A postemergence; settings: Ambrosia artemisiifolia, post-emergence, 240 h, Postemergence, read-out: Ragweed plant response rating (0 to 100 scale)
In short: (§2)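 Greenhouse, ~10 d after spray; visual injury vs untreated controls, 0 = no effect, 100 = complete control. Preemergence: directed soil spray over planted seeds. Postemergence: plants 2–10 cm, 1–2 leaf stage. Loam/sand blend. Compound in non-phytotoxic solvent with surfactant.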

[6] = tested on: pigweed (Amaranthus retroflexus); assay: Test A postemergence; settings: Amaranthus retroflexus, post-emergence, 240 h, Postemergence, read-out: Pigweed plant response rating (0 to 100 scale)
In short: as §2

[7] = tested on: blackgrass (Alopecurus myosuroides); assay: Test A postemergence; settings: Alopecurus myosuroides, post-emergence, 240 h, Postemergence, read-out: Blackgrass plant response rating (0 to 100 scale)
In short: as §2

[8] = tested on: corn (Zea mays); assay: Test A postemergence; settings: Zea mays, post-emergence, 240 h, Postemergence, read-out: Corn plant response rating (0 to 100 scale)
In short: as §2

[9] = tested on: ryegrass, Italian (Italian ryegrass, Lolium multiflorum); assay: Test A postemergence; settings: Lolium multiflorum, post-emergence, 240 h, Postemergence, read-out: Ryegrass, Italian plant response rating (0 to 100 scale)
In short: as §2

[10] = tested on: giant foxtail (Setaria faberii); assay: Test A postemergence; settings: Setaria faberi, post-emergence, 240 h, Postemergence, read-out: Foxtail, Giant plant response rating (0 to 100 scale)
In short: as §2

[11] = tested on: Galium (catchweed bedstraw, Galium aparine); assay: Test A postemergence; settings: Galium, post-emergence, 240 h, Postemergence, read-out: Galium plant response rating (0 to 100 scale)
In short: as §2

[12] = tested on: wheat (Triticum aestivum); assay: Test A postemergence; settings: Triticum aestivum, post-emergence, 240 h, Postemergence, read-out: Wheat plant response rating (0 to 100 scale)
In short: as §2

[13] = tested on: Kochia (Kochia scoparia); assay: Test A postemergence; settings: Bassia scoparia, post-emergence, 240 h, Postemergence, read-out: Kochia plant response rating (0 to 100 scale)
In short: as §2

[14] = tested on: barnyardgrass (Echinochloa crus-galli); assay: Test A postemergence; settings: Echinochloa crus-galli, post-emergence, 240 h, Postemergence
In short: as §2

[15] = tested on: ragweed (common ragweed, Ambrosia elatior); assay: Test A preemergence; settings: Ambrosia artemisiifolia, pre-emergence, 240 h, 0 to 100 scale where 0 is no effect and 100 is complete control, read-out: Ragweed plant response rating
In short: as §2

[16] = tested on: pigweed (Amaranthus retroflexus); assay: Test A preemergence; settings: Amaranthus retroflexus, pre-emergence, 240 h, 0 to 100 scale where 0 is no effect and 100 is complete control, read-out: Pigweed plant response rating
[17] = tested on: ryegrass, Italian (Italian ryegrass, Lolium multiflorum); assay: Test A preemergence; settings: Lolium multiflorum, pre-emergence, 240 h, 0 to 100 scale where 0 is no effect and 100 is complete control, read-out: Ryegrass, Italian plant response rating
In short: as §2

[18] = tested on: giant foxtail (Setaria faberii); assay: Test A preemergence; settings: Setaria faberi, pre-emergence, 240 h, 0 to 100 scale where 0 is no effect and 100 is complete control, read-out: Foxtail, Giant plant response rating
In short: as §2

[19] = tested on: Kochia (Kochia scoparia); assay: Test A preemergence; settings: Bassia scoparia, pre-emergence, 240 h, 0 to 100 scale where 0 is no effect and 100 is complete control, read-out: Kochia plant response rating
In short: as §2

[20] = tested on: barnyardgrass (Echinochloa crus-galli); assay: Test A preemergence; settings: Echinochloa crus-galli, pre-emergence, 240 h, 0 to 100 scale where 0 is no effect and 100 is complete control, read-out: Barnyardgrass plant response rating
In short: as §2

[21] = 125 g ai/ha, visual rating about 10 d after treatment
[22] = 31 g ai/ha, 0 is no effect, 100 is complete control
[23] = 125 g ai/ha, preemergence, visual injury rating, approximately 10 d

## Cc1ccc([C@H]2CN(C)C(=O)[C@@H]2C(=O)Nc2c(F)c(F)c(F)c(F)c2F)cc1 [Compound 1292]
[1]
  pest or weed control at 250 g/ha: 15%
[2]
  pest or weed control at 250 g/ha: 0%
[3]
  pest or weed control at 250 g/ha: 0%
[4]
  pest or weed control at 250 g/ha: 0%
[5]; [21]
  pest or weed control at 125 g/ha: 0%
[5]; [22]
  pest or weed control at 31 g/ha: 0%
[6]; [21]
  pest or weed control at 125 g/ha: 0%
[6]; [22]
  pest or weed control at 31 g/ha: 0%
[7]; [21]
  pest or weed control at 125 g/ha: 0%
[7]; [22]
  pest or weed control at 31 g/ha: 0%
[8]; [21]
  plant injury at 125 g/ha: 0%
[8]; [22]
  plant injury at 31 g/ha: 0%
[9]; [21]
  pest or weed control at 125 g/ha: 0%
[9]; [22]
  pest or weed control at 31 g/ha: 0%
[10]; [21]
  pest or weed control at 125 g/ha: 0%
[10]; [22]
  pest or weed control at 31 g/ha: 0%
[11]; [21]
  pest or weed control at 125 g/ha: 0%
[11]; [22]
  pest or weed control at 31 g/ha: 0%
[12]; [21]
  plant injury at 125 g/ha: 0%
[12]; [22]
  plant injury at 31 g/ha: 0%
[13]; [21]
  pest or weed control at 125 g/ha: 0%
[13]; [22]
  pest or weed control at 31 g/ha: 0%
[14]; 125 g ai/ha, visual rating about 10 d after treatment, read-out: Barnyardgrass plant response rating (0 to 100 scale, 0 no effect, 100 complete control)
  pest or weed control at 125 g/ha: 0%
[14]; 31 g ai/ha, 0 is no effect, 100 is complete control, read-out: Barnyardgrass plant response rating (0 to 100 scale)
  pest or weed control at 31 g/ha: 0%
[15]; 31 g ai/ha, Preemergence
  pest or weed control at 31 g/ha: 0%
[15]; [23]
  pest or weed control at 125 g/ha: 0%
[16]; 31 g ai/ha, Preemergence
  pest or weed control at 31 g/ha: 40%
[16]; [23]
  pest or weed control at 125 g/ha: 40%
[17]; 31 g ai/ha, Preemergence
  pest or weed control at 31 g/ha: 0%
[17]; [23]
  pest or weed control at 125 g/ha: 40%
[18]; 31 g ai/ha, Preemergence
  pest or weed control at 31 g/ha: 70%
[18]; [23]
  pest or weed control at 125 g/ha: 80%
[19]; 31 g ai/ha, Preemergence
  pest or weed control at 31 g/ha: 60%
[19]; [23]
  pest or weed control at 125 g/ha: 60%
[20]; 31 g ai/ha, Preemergence
  pest or weed control at 31 g/ha: 0%
[20]; [23]
  pest or weed control at 125 g/ha: 50%
